Patent publication US20040092547A1, “Alkyl-[4-(difluorophenyl)-oxazol-5-yl]-triazolo-pyridines” (Pfizer Inc, priority 2002, published 2004)

`CC(C)c1nnc2ccc(-c3ocnc3-c3c(F)cccc3F)cn12` [Example 1, 6-[4-(2,6-Difluoro-phenyl)-oxazol-5-yl]-3-isopropyl-[1,2,4]triazolo[4,3-a]pyridine] showed a melting point of 175.7 to 176.2 °C.
